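Values below derive from 48-hour exposures of cells grown in 96-well plates, with endpoints linearly interpolated between the two concentrations bracketing the appropriate inhibition level. Abbreviation: GI50, concentration required for 50% inhibition of growth.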 Active and inactive are the calls of the source. Rule as the data show it: active = GI50 up to about 1.1 µM and inactive = higher.
Assays:
Assay in all cases: DTP human tumour cell line panel, 48 h
[1] = system: BT-549
[2] = system: CCRF-CEM
[3] = system: EKVX
[4] = system: HT-29
[5] = system: IGROV-1
[6] = system: K562
[7] = system: MCF7
[8] = system: MOLT-4
[9] = system: NCI-H522
[10] = system: NCI/ADR-RES
[11] = system: OVCAR-5
[12] = system: PC-3
[13] = system: RXF 393
[14] = system: SF-295
[15] = system: SF-539
[16] = system: SNB-75
[17] = system: SW-620
[18] = system: U-251
[19] = system: UACC-257
[20] = system: LOX IMVI

| Compound | GI50 [1] | GI50 [2] | GI50 [3] | GI50 [4] | GI50 [5] | GI50 [6] | GI50 [7] | GI50 [8] | GI50 [9] | GI50 [10] | GI50 [11] | GI50 [12] | GI50 [13] | GI50 [14] | GI50 [15] | GI50 [16] | GI50 [17] | GI50 [18] | GI50 [19] | GI50 [20] |
| --- | --- | --- | --- | --- | --- | --- | --- | --- | --- | --- | --- | --- | --- | --- | --- | --- | --- | --- | --- | --- |
| CC1(C)COCN1COC1CCCCC1 | > 100 µM (inactive) | 4.91 µM (inactive) | > 100 µM (inactive) | > 100 µM (inactive) | > 100 µM (inactive) | 92.7 µM (inactive) | > 100 µM (inactive) | 24.1 µM (inactive) | > 100 µM (inactive) | > 100 µM (inactive) | > 100 µM (inactive) | > 100 µM (inactive) | > 100 µM (inactive) | > 100 µM (inactive) | > 100 µM (inactive) | 5.08 µM (inactive) | > 100 µM (inactive) | > 100 µM (inactive) | > 100 µM (inactive) | – |
| O=C(Cc1ccccc1CCO)NCCc1ccccc1 | > 100 µM (inactive) | > 100 µM (inactive) | > 100 µM (inactive) | > 100 µM (inactive) | > 100 µM (inactive) | > 100 µM (inactive) | > 100 µM (inactive) | > 100 µM (inactive) | > 100 µM (inactive) | > 100 µM (inactive) | > 100 µM (inactive) | > 100 µM (inactive) | > 100 µM (inactive) | > 100 µM (inactive) | > 100 µM (inactive) | > 100 µM (inactive) | > 100 µM (inactive) | > 100 µM (inactive) | > 100 µM (inactive) | – |
| Cc1n[nH]c(=O)n1Nc1ccccc1 | > 100 µM (inactive) | > 100 µM (inactive) | > 100 µM (inactive) | > 100 µM (inactive) | > 100 µM (inactive) | > 100 µM (inactive) | > 100 µM (inactive) | > 100 µM (inactive) | > 100 µM (inactive) | > 100 µM (inactive) | > 100 µM (inactive) | > 100 µM (inactive) | – | > 100 µM (inactive) | > 100 µM (inactive) | > 100 µM (inactive) | > 100 µM (inactive) | > 100 µM (inactive) | > 100 µM (inactive) | > 100 µM (inactive) |
| O=C1/C(=C/c2ccc(O)c(CN3CCCCC3)c2)CCC/C1=C\c1ccc(O)c(CN2CCCCC2)c1 | 10.4 µM (inactive) | 3.32 µM (inactive) | 8.85 µM (inactive) | 1.51 µM (inactive) | 5.75 µM (inactive) | 1.99 µM (inactive) | 3.26 µM (inactive) | 4 µM (inactive) | – | 2.89 µM (inactive) | 29.6 µM (inactive) | 7.05 µM (inactive) | 3.24 µM (inactive) | 3.25 µM (inactive) | – | 2.27 µM (inactive) | 5.52 µM (inactive) | 5.22 µM (inactive) | 10.6 µM (inactive) | 7.74 µM (inactive) |
| SC1CCCN(Cc2ccccc2)C1 (stereo not given) | > 100 µM (inactive) | – | > 100 µM (inactive) | 21 µM (inactive) | 59.8 µM (inactive) | 23.8 µM (inactive) | 20.8 µM (inactive) | 26.5 µM (inactive) | 35.7 µM (inactive) | > 100 µM (inactive) | > 100 µM (inactive) | 57.5 µM (inactive) | > 100 µM (inactive) | 61.1 µM (inactive) | > 100 µM (inactive) | > 100 µM (inactive) | 28.2 µM (inactive) | 33.4 µM (inactive) | 32.4 µM (inactive) | 16.5 µM (inactive) |
| C/C(=N\Nc1nc2cccnc2s1)c1ccccn1 | 0.117 µM (active) | < 0.01 µM (active) | < 0.01 µM (active) | < 0.01 µM (active) | < 0.0141 µM (active) | < 0.0149 µM (active) | 0.0136 µM (active) | < 0.01 µM (active) | < 0.01 µM (active) | < 0.01 µM (active) | 0.845 µM (active) | 0.0202 µM (active) | 1.06 µM (active) | 0.288 µM (active) | 0.124 µM (active) | 0.451 µM (active) | < 0.0143 µM (active) | < 0.0189 µM (active) | < 0.01 µM (active) | – |
| CC12CC3OC(=O)C1COC14OC5(C2C1=O)C(O)(CCC1C4CC(O)C2(O)CC=CC(=O)C12C)C(=O)OC35C (stereo not given) | > 100 µM (inactive) | > 100 µM (inactive) | > 100 µM (inactive) | > 100 µM (inactive) | > 100 µM (inactive) | > 100 µM (inactive) | > 100 µM (inactive) | > 100 µM (inactive) | > 100 µM (inactive) | > 100 µM (inactive) | > 100 µM (inactive) | > 100 µM (inactive) | – | > 100 µM (inactive) | > 100 µM (inactive) | > 100 µM (inactive) | > 100 µM (inactive) | > 100 µM (inactive) | > 100 µM (inactive) | > 100 µM (inactive) |
| CN/C(=N\N)NS(=O)(=O)c1cc(C)c(Cl)cc1S | 38.5 µM (inactive) | 43.6 µM (inactive) | 81.7 µM (inactive) | 40.4 µM (inactive) | 86.3 µM (inactive) | 49.2 µM (inactive) | 62.4 µM (inactive) | > 10 µM (inactive) | 25.2 µM (inactive) | > 100 µM (inactive) | 93.5 µM (inactive) | > 100 µM (inactive) | 33.4 µM (inactive) | – | > 100 µM (inactive) | > 100 µM (inactive) | 48.5 µM (inactive) | 64.1 µM (inactive) | > 100 µM (inactive) | 96.4 µM (inactive) |
| COc1ccc(/C=N\N(C)Cc2cccc3ccsc23)cc1 | > 100 µM (inactive) | > 100 µM (inactive) | > 100 µM (inactive) | 49.2 µM (inactive) | > 100 µM (inactive) | 54.8 µM (inactive) | > 100 µM (inactive) | 46.8 µM (inactive) | > 100 µM (inactive) | > 100 µM (inactive) | > 100 µM (inactive) | > 100 µM (inactive) | > 100 µM (inactive) | > 100 µM (inactive) | – | > 100 µM (inactive) | > 100 µM (inactive) | > 100 µM (inactive) | 48.9 µM (inactive) | > 100 µM (inactive) |
| Cc1ccc(NCc2nnc3c(-c4ccccc4)nc4ccccc4n23)cc1 | 37.4 µM (inactive) | 15.1 µM (inactive) | 18.7 µM (inactive) | 21.5 µM (inactive) | 17.5 µM (inactive) | 13 µM (inactive) | 23.6 µM (inactive) | 16 µM (inactive) | 16 µM (inactive) | 50.9 µM (inactive) | 39.9 µM (inactive) | 19.1 µM (inactive) | 34.8 µM (inactive) | 33.7 µM (inactive) | 60.5 µM (inactive) | – | 39.3 µM (inactive) | 16.7 µM (inactive) | 36 µM (inactive) | 23.5 µM (inactive) |
| CCc1cn2c(/C=N/N=C(N)N)c(-c3cc(C)c(Cl)cc3Cl)nc2s1 | 1.64 µM (inactive) | 0.209 µM (active) | – | 1.22 µM (inactive) | 1.69 µM (inactive) | 1.01 µM (active) | 1.71 µM (inactive) | – | 1.87 µM (inactive) | 3.95 µM (inactive) | 1.61 µM (inactive) | 1.56 µM (inactive) | 1.74 µM (inactive) | 0.7 µM (active) | 1.74 µM (inactive) | 1.55 µM (inactive) | 1.64 µM (inactive) | 1.53 µM (inactive) | 1.4 µM (inactive) | 1.35 µM (inactive) |
| CC1=C(C(=O)OCCO[N+](=O)[O-])C(c2cccc([N+](=O)[O-])c2)C(C(=O)OC(C)C)=C(C)N1 (stereo not given) | 14 µM (inactive) | 29.9 µM (inactive) | 16.8 µM (inactive) | 15.2 µM (inactive) | 14 µM (inactive) | 18.2 µM (inactive) | 19.6 µM (inactive) | 3.23 µM (inactive) | 17.8 µM (inactive) | 10.5 µM (inactive) | 14.9 µM (inactive) | 4.25 µM (inactive) | 13.8 µM (inactive) | 11.4 µM (inactive) | 14.2 µM (inactive) | – | 22.3 µM (inactive) | 14.9 µM (inactive) | 12.3 µM (inactive) | 16.9 µM (inactive) |
| Cn1c(C(O)C2(c3cccnc3)SCCCS2)cc2ccccc21 (stereo not given) | 44.5 µM (inactive) | 84.7 µM (inactive) | 72.3 µM (inactive) | > 100 µM (inactive) | 30 µM (inactive) | 41.1 µM (inactive) | 59.2 µM (inactive) | – | – | > 100 µM (inactive) | > 100 µM (inactive) | 66.1 µM (inactive) | – | 56.9 µM (inactive) | – | 73.3 µM (inactive) | > 100 µM (inactive) | > 100 µM (inactive) | 53.3 µM (inactive) | > 100 µM (inactive) |
| COc1ccc(CNC2=N/C(=C\c3ccccc3Cl)C(=O)N2C)cc1 | 36.8 µM (inactive) | – | 28.3 µM (inactive) | 22.9 µM (inactive) | 24.9 µM (inactive) | 25.5 µM (inactive) | 25.5 µM (inactive) | 27.1 µM (inactive) | 20.5 µM (inactive) | 28 µM (inactive) | 27.9 µM (inactive) | 28.1 µM (inactive) | 31.8 µM (inactive) | 31.7 µM (inactive) | 24.6 µM (inactive) | 11.8 µM (inactive) | 19.5 µM (inactive) | 17.9 µM (inactive) | 33.6 µM (inactive) | 20.1 µM (inactive) |
| O=C1C=CC(=O)C(N(CCO)CCO)=C1.O=C1C=CC2(O)OCCN(CCO)C2=C1 | > 100 µM (inactive) | > 100 µM (inactive) | > 100 µM (inactive) | > 100 µM (inactive) | > 100 µM (inactive) | > 100 µM (inactive) | > 100 µM (inactive) | > 100 µM (inactive) | > 100 µM (inactive) | > 100 µM (inactive) | > 100 µM (inactive) | > 100 µM (inactive) | > 100 µM (inactive) | > 100 µM (inactive) | – | > 100 µM (inactive) | > 100 µM (inactive) | > 100 µM (inactive) | > 100 µM (inactive) | > 100 µM (inactive) |
